The source of these data is patent US20240199608A1 (Eli Lilly and Company, priority 2022, published 2024).

The target in the experiment is T1, Human AhR (Homo sapiens, UniProt P35869).
T1 construct: expressed in transfected cells
T1 sequence (P35869 11-848): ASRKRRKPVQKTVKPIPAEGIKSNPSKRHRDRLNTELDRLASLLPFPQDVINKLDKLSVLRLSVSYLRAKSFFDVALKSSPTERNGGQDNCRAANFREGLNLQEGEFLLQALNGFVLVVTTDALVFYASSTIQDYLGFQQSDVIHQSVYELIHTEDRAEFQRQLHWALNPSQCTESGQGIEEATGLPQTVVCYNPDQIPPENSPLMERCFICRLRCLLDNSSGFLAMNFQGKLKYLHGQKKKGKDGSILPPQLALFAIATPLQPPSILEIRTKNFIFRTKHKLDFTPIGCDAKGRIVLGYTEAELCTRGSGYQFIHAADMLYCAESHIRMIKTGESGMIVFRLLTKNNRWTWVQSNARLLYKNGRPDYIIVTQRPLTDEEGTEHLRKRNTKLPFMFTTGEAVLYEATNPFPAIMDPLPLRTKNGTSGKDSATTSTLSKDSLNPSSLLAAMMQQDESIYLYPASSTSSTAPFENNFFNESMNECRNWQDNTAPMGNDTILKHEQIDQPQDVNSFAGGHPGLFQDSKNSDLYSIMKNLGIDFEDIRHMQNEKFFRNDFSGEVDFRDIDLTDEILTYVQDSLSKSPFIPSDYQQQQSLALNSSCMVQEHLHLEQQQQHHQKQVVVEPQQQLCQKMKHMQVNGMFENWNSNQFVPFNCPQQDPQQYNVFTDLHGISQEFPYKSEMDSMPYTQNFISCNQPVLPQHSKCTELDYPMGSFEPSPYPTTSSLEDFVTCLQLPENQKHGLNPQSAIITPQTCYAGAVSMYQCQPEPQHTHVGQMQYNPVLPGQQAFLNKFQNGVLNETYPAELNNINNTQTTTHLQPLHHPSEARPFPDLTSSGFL
The experiment in a line: hAHR Nuclear Translocation Assay. The format is cell-based. The settings on record: AhR-EGFP nuclear translocation in Jump-In T-REx HEK293 cells, 45 minutes incubation; class symbols; read-out: Rel EC50. An excerpt: The purpose of this assay is to measure the ability of compounds to bind to, activate, and induce the translocation of AhR into the nucleus of a cell for transcription. Stable cell lines were established using Jump-InTM T-RExTM HEK293 Retargeting Kit (Life Technologies). Human AhR cDNA was cloned into the pJTI R4 CMV-TO EGFP vector. The EGFP was cloned to the C-terminal of AHR to form AhR-EGFP chimera. The pJTI R4 CMV-TO AhR-EGFP vector was transfected using FuGENE® HD into Jump-InTM T-RExTM HEK293 cells. Transfected cells were selected using 2.5 mg/ml G418 for 10 to 14 days, then expanded, harvested, and suspended in freeze media (FBS with 8% DMSO) at 2×10^7 cells/ml, and aliquots were stored in liquid nitrogen. One day before the assay date, cells were thawed and resuspended in DMEM with 5% FBS in the presence of 1 μg/ml Doxycycline and plated into ploy-L-Lysine coated […]-384 ULTRA Microplates (Perkin Elmer) at 12,000 to 15,000 cells per well and incubated at 37° C. and 5% CO2 overnight. On the assay date, compound was serially diluted (1:2) into 384-well nunc plates with DMSO using acoustic dispensing (ECHO®). The dose response was a 20-point curve. […] The culture media was damped and 25 μl of DMEM plus 0.1% BSA was added, then 25 μL of compound in DMEM plus 0.1% BSA was added into cell plates. Cells were incubated compounds at 37° C. and 5% CO2 for 45 minutes. The final DMSO concentration was 0.2%. The media was damped after 45 minutes incubation. The cells were fixed with 40 μl of cold MeOH (-20° C.) for 20 minutes. The MeOH was damped and 50 μL of DPBS containing 1 μg/mL Hochst was added into the cell plates. The intensity of EGFP was quantitated by using Opera PHENIX® or OPERETTA® high content image system (Perkin Elmer) with 20× Water Objective and five field per well. The ratio of EGFP fluorescent intensity in nuclear over cytosol was analyzed using a 4-parameter nonlinear logistic equation to determine the potency of AhR agonists.

In the case of `CC1CCc2c1cc(C(=O)Nc1ncccc1F)c1nncn21` (single isomer, unassigned) [Example 37, N-(3-Fluoropyridin-2-yl)-6-methyl-7,8-dihydro-6H-cyclopenta[e][1,2,4] triazolo[4,3-a]pyridine-4-carboxamide], the EC50 was in the range of 1 to 10 nM.
As for `CC1CCc2c1cc(C(=O)Nc1ccns1)c1nncn21` (single isomer, unassigned) [Example 38, N-(Isothiazol-5-yl)-6-methyl-7,8-dihydro-6H-cyclopenta[e][1,2,4] triazolo[4,3-a]pyridine-4-carboxamide], the EC50 fell in the range of 1 to 10 nM.
To `CC1CCc2c1cc(C(=O)Nc1ccns1)c1nncn21` (single isomer, unassigned) [Example 39, N-(Isothiazol-5-yl)-6-methyl-7,8-dihydro-6H-cyclopenta[e][1,2,4] triazolo[4,3-a]pyridine-4-carboxamide] belongs 1 to 10 nM; to `CC1CCc2c1cc(C(=O)Nc1ccc(F)cn1)c1nncn21` (single isomer, unassigned) [Example 42, N-(5-Fluoropyridin-2-yl)-6-methyl-7,8-dihydro-6H-cyclopenta[e][1,2,4] triazolo[4,3-a]pyridine-4-carboxamide], 1 to 10 nM.
For `CC1CCc2c1cc(C(=O)Nc1ccc(F)cn1)c1nncn21` (single isomer, unassigned) [Example 43, N-(5-Fluoropyridin-2-yl)-6-methyl-7,8-dihydro-6H-cyclopenta[e][1,2,4]triazolo[4,3-a]pyridine-4-carboxamide], the EC50 lay within 1 to 10 nM.
To `CC1CCc2c1cc(C(=O)Nc1ccno1)c1nncn21` (single isomer, unassigned) [Example 44, N-(Isoxazol-5-yl)-6-methyl-7,8-dihydro-6H-cyclopenta[e][1,2,4] triazolo[4,3-a]pyridine-4-carboxamide] belongs greater than 50 nM.
Regarding `CC1CCc2c1cc(C(=O)Nc1ccno1)c1nncn21` (single isomer, unassigned) [Example 45, N-(Isoxazol-5-yl)-6-methyl-7,8-dihydro-6H-cyclopenta[e][1,2,4] triazolo[4,3-a]pyridine-4-carboxamide], the EC50 is 10 to 50 nM.
Under `CC1CCc2c1cc(C(=O)Nc1ncc(Cl)cn1)c1nncn21` (single isomer, unassigned) [Example 46, N-(5-Chloropyrimidin-2-yl)-6-methyl-7,8-dihydro-6H-cyclopenta[e][1,2,4] triazolo[4,3-a]pyridine-4-carboxamide] stands 1 to 10 nM; under `CC1CCc2c1cc(C(=O)Nc1ncc(Cl)cn1)c1nncn21` (single isomer, unassigned) [Example 47, N-(5-Chloropyrimidin-2-yl)-6-methyl-7,8-dihydro-6H-cyclopenta[e][1,2,4] triazolo[4,3-a]pyridine-4-carboxamide], 1 to 10 nM; under `COc1cnc(NC(=O)c2cc3c(n4cnnc24)CCC3C)nc1` (single isomer, unassigned) [Example 48, N-(5-Methoxypyrimidin-2-yl)-6-methyl-7,8-dihydro-6H-cyclopenta[e][1,2,4] triazolo[4,3-a]pyridine-4-carboxamide], 10 to 50 nM.
`COc1cnc(NC(=O)c2cc3c(n4cnnc24)CCC3C)nc1` (single isomer, unassigned) [Example 49, N-(5-Methoxypyrimidin-2-yl)-6-methyl-7,8-dihydro-6H-cyclopenta[e][1,2,4] triazolo[4,3-a]pyridine-4-carboxamide]: the EC50 was 10 to 50 nM.
Under `CC(C)OC1CCc2c1cc(C(=O)Nc1ncc(F)cn1)c1nncn21` (single isomer, unassigned) [Example 50, N-(5-Fluoropyrimidin-2-yl)-6-isopropoxy-7,8-dihydro-6H-cyclopenta[e][1,2,4] triazolo[4,3-a]pyridine-4-carboxamide] stands greater than 50 nM.
With `CC(C)OC1CCc2c1cc(C(=O)Nc1ncc(F)cn1)c1nncn21` (single isomer, unassigned) [Example 51, N-(5-Fluoropyrimidin-2-yl)-6-isopropoxy-7,8-dihydro-6H-cyclopenta[e][1,2,4] triazolo[4,3-a]pyridine-4-carboxamide], the EC50 is greater than 50 nM.
With `Cc1nnc2c(C(=O)Nc3ncc(F)cn3)cc3c(n12)CCC3C` (single isomer, unassigned) [Example 52, N-(5-Fluoropyrimidin-2-yl)-1,6-dimethyl-7,8-dihydro-6H-cyclopenta[e][1,2,4] triazolo[4,3-a]pyridine-4-carboxamide], the EC50 was greater than 50 nM.
With `Cc1nnc2c(C(=O)Nc3ncc(F)cn3)cc3c(n12)CCC3C` (single isomer, unassigned) [Example 53, N-(5-Fluoropyrimidin-2-yl)-1,6-dimethyl-7,8-dihydro-6H-cyclopenta[e][1,2,4] triazolo[4,3-a]pyridine-4-carboxamide], the EC50 was greater than 50 nM.
To `CC(C)c1nnc2c(C(=O)Nc3ncc(F)cn3)cc3c(n12)CCC3C` (single isomer, unassigned) [Example 54, N-(5-Fluoropyrimidin-2-yl)-1-isopropyl-6-methyl-7,8-dihydro-6H-cyclopenta[e][1,2,4] triazolo[4,3-a]pyridine-4-carboxamide] belongs greater than 50 nM.
As to `CC(C)c1nnc2c(C(=O)Nc3ncc(F)cn3)cc3c(n12)CCC3C` (single isomer, unassigned) [Example 55, N-(5-Fluoropyrimidin-2-yl)-1-isopropyl-6-methyl-7,8-dihydro-6H-cyclopenta[e][1,2,4] triazolo[4,3-a]pyridine-4-carboxamide], the EC50 is greater than 50 nM.
Under `CCC1CCc2c1cc(C(=O)Nc1ncc(F)cn1)c1nncn21` (single isomer, unassigned) [Example 56, 6-Ethyl-N-(5-fluoropyrimidin-2-yl)-7,8-dihydro-6H-cyclopenta[e][1,2,4] triazolo[4,3-a]pyridine-4-carboxamide] stands 1 to 10 nM; under `CCC1CCc2c1cc(C(=O)Nc1ncc(F)cn1)c1nncn21` (single isomer, unassigned) [Example 57, 6-Ethyl-N-(5-fluoropyrimidin-2-yl)-7,8-dihydro-6H-cyclopenta[e][1,2,4] triazolo[4,3-a]pyridine-4-carboxamide], 1 to 10 nM; under `CC(C)C1CCc2c1cc(C(=O)Nc1ncc(F)cn1)c1nncn21` (single isomer, unassigned) [Example 58, N-(5-Fluoropyrimidin-2-yl)-6-isopropyl-7,8-dihydro-6H-cyclopenta[e][1,2,4] triazolo[4,3-a]pyridine-4-carboxamide], 1 to 10 nM.
Under `CC(C)C1CCc2c1cc(C(=O)Nc1ncc(F)cn1)c1nncn21` (single isomer, unassigned) [Example 59, N-(5-Fluoropyrimidin-2-yl)-6-isopropyl-7,8-dihydro-6H-cyclopenta[e][1,2,4] triazolo[4,3-a]pyridine-4-carboxamide] stands 10 to 50 nM; under `CCC(C)C1CCc2c1cc(C(=O)Nc1ncc(F)cn1)c1nncn21` (single isomer, unassigned) [Example 60, 6-(sec-butyl)-N-(5-Fluoropyrimidin-2-yl)-7,8-dihydro-6H-cyclopenta[e][1,2,4] triazolo[4,3-a]pyridine-4-carboxamide], 10 to 50 nM.

A word on the EC50: it is the midpoint of the concentration-response curve.
